{"source": "patent US20220125795A1", "about": "“THERAPEUTIC COMBINATIONS AND COMPOSITIONS FOR THE TREATMENT OF INFLAMMATORY BOWEL DISEASE” (RIJKSUNIVERSITEIT GRONINGEN, priority 2019, published 2022)", "format_in_all_cases": "in vivo, human", "key": {"[1]": {"tested_on": "Enterobacteriaceae including E. coli", "test": "Prospective clinical intervention study in CD patients: fecal microbial composition", "conditions": "CD patients with thiopurine treatment; 100 mg riboflavin daily for 3 weeks", "description": "(§1) In a prospective clinical intervention study, 70 CD patients were included and divided into two groups with (active) and without (quiescent) evidence of mucosal inflammation (defined by fecal calprotectin (FC) cut-off value: 200 μg/g). Patients received 100 mg riboflavin daily for 3 weeks. Clinical disease activity (Harvey-Bradshaw Index: HBI), inflammatory biomarkers (including interleukin 2) as well as fecal microbial composition (including pathogenic Enterobacteriaceae including E. coli) were analyzed before and after riboflavin intervention."}, "interleukin 2": {"tested_on": "interleukin 2", "test": "Prospective clinical intervention study in CD patients: inflammatory biomarkers (interleukin 2)", "conditions": "CD patients with thiopurine treatment; 100 mg riboflavin daily for 3 weeks", "description": "as §1"}, "[2]": {"test": "Prospective clinical intervention study in CD patients: clinical disease activity (Harvey-Bradshaw Index)", "conditions": "100 mg riboflavin daily for 3 weeks, before vs after", "description": "as §1"}}}
{"smiles": "Cc1cc2nc3c(=O)[nH]c(=O)nc-3n(C[C@H](O)[C@H](O)[C@H](O)CO)c2cc1C", "note": "[riboflavin]", "values": [{"measurement": "Enterobacteriaceae including E. coli (fecal)", "setting": "[1]", "result": "further reduction"}, {"measurement": "proinflammatory cytokine IL2", "setting": "interleukin 2", "result": "further reduction"}, {"measurement": "clinical disease activity (HBI)", "setting": "[2]; CD patients with mesalazine treatment", "result": "this was not the case (not as pronounced as)"}, {"measurement": "clinical disease activity (HBI)", "setting": "[2]; CD patients with thiopurine treatment (particularly quiescent disease)", "result": "further reduced clinical disease activity (HBI)"}]}
